PubChem BioAssay (NCI)
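Growth conditions: 96-well plates. Treatment: test compound, 48 hours, 5 concentrations. Analysis: linear interpolation between bracketing concentrations; unreached endpoints set to highest concentration. TGI: concentration producing complete growth inhibition.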

Tests used:
Experiment in all cases: growth of human tumour cells (NCI), 48 h
UACC-257 melanoma = test system: UACC-257 melanoma
MOLT-4 leukemia = test system: MOLT-4 leukemia
MDA-MB-231 breast = test system: MDA-MB-231 breast
SW-620 colon = test system: SW-620 colon
NCI-H460 lung = test system: NCI-H460 lung
HCT-15 colon = test system: HCT-15 colon
DU-145 prostate = test system: DU-145 prostate
MCF7 breast = test system: MCF7 breast
COLO 205 colon = test system: COLO 205 colon
SK-MEL-28 melanoma = test system: SK-MEL-28 melanoma
SK-MEL-2 melanoma = test system: SK-MEL-2 melanoma
M14 melanoma = test system: M14 melanoma
EKVX NSCLC = test system: EKVX NSCLC
OVCAR-5 ovarian = test system: OVCAR-5 ovarian
TK-10 renal = test system: TK-10 renal
UO-31 renal = test system: UO-31 renal
MALME-3M melanoma = test system: MALME-3M melanoma
IGROV1 ovarian = test system: IGROV1 ovarian
KM12 colon = test system: KM12 colon
SNB-75 CNS = test system: SNB-75 CNS
HCC-2998 colon = test system: HCC-2998 colon
K-562 leukemia = test system: K-562 leukemia
HT29 colon = test system: HT29 colon
BT-549 breast = test system: BT-549 breast
CAKI-1 renal = test system: CAKI-1 renal
RXF 393 renal = test system: RXF 393 renal
MDA-MB-435 = test system: MDA-MB-435
SF-539 CNS = test system: SF-539 CNS
HL-60(TB) leukemia = test system: HL-60(TB) leukemia
OVCAR-8 ovarian = test system: OVCAR-8 ovarian
786-0 renal = test system: 786-0 renal
CCRF-CEM leukemia = test system: CCRF-CEM leukemia
T-47D breast = test system: T-47D breast
SR leukemia = test system: SR leukemia
A549 NSCLC = test system: A549 NSCLC
OVCAR-3 ovarian = test system: OVCAR-3 ovarian
SN12C renal = test system: SN12C renal
U251 CNS = test system: U251 CNS
SF-268 CNS = test system: SF-268 CNS
UACC-62 melanoma = test system: UACC-62 melanoma
ACHN renal = test system: ACHN renal
SNB-19 CNS = test system: SNB-19 CNS
RPMI-8226 leukemia = test system: RPMI-8226 leukemia
HOP-62 NSCLC = test system: HOP-62 NSCLC
PC-3 prostate = test system: PC-3 prostate
SK-MEL-5 melanoma = test system: SK-MEL-5 melanoma
HCT-116 colon = test system: HCT-116 colon
SK-OV-3 ovarian = test system: SK-OV-3 ovarian
NCI/ADR-RES ovarian = test system: NCI/ADR-RES ovarian
A498 renal = test system: A498 renal
MDA-N = test system: MDA-N

Measured: TGI

NC1CC(=O)c2c1sc(Cl)c2Cl (stereo unspecified)
> 100 µM: UACC-257 melanoma | MOLT-4 leukemia | MDA-MB-231 breast | SW-620 colon | NCI-H460 lung | HCT-15 colon | DU-145 prostate | MCF7 breast | COLO 205 colon | SK-MEL-28 melanoma | SK-MEL-2 melanoma | M14 melanoma | EKVX NSCLC | OVCAR-5 ovarian | TK-10 renal | UO-31 renal | MALME-3M melanoma | IGROV1 ovarian | KM12 colon | SNB-75 CNS | HCC-2998 colon | K-562 leukemia | HT29 colon | BT-549 breast | CAKI-1 renal | RXF 393 renal | MDA-MB-435 | SF-539 CNS | HL-60(TB) leukemia | OVCAR-8 ovarian | 786-0 renal | CCRF-CEM leukemia | T-47D breast | SR leukemia | A549 NSCLC | OVCAR-3 ovarian | SN12C renal | U251 CNS | SF-268 CNS | UACC-62 melanoma | ACHN renal | SNB-19 CNS | RPMI-8226 leukemia | HOP-62 NSCLC | PC-3 prostate | SK-MEL-5 melanoma | HCT-116 colon | SK-OV-3 ovarian | NCI/ADR-RES ovarian | A498 renal | MDA-N
